Experimental data published in PMC3493622 (Organic & biomolecular chemistry, 2012).
Read-outs that look alike come from different tables or passages of the source.

What was measured:
[1] = tested on: NFκB (luciferase reporter in human embryonic kidney cells 293); assay: NFκB luciferase assay; type: cell-based; details: for NFκB assay % inhibition: screening concentration 50 μM, TNFα; for NFκB inhibitory activity (in words): at 50 μM
[2] = tested on: HEK293; assay: Cell survival in the NFκB assay; type: cell-based, Human; details: for NFκB assay % survival: 50 μM, cell survival in comparison with vehicle-treated controls
[3] = tested on: NO production (iNOS) in LPS-stimulated RAW 264.7 cells; type: cell-based, murine; details: for Nitrite assay % inhibition: screening concentration 50 μM, LPS 1 μg/mL, 20 h; for nitrite inhibitory activity (in words): tested up to 50 μM
[4] = tested on: RAW 264.7 cells; assay: SRB cytotoxicity / cell survival under nitrite assay conditions; type: cell-based, murine; details: for Nitrite assay % survival: 50 μM, cell survival in comparison with vehicle-treated controls, SRB
[5] = as above; type: cell-based, murine; details: mouse, RAW 264.7 cells

N#Cc1ccc2cc(-c3ccccc3)[nH]c2c1 [Compound 10ea, 6-Carbonitrile-2-phenyl-1H-indole]
NFκB assay % inhibition ([1]; 6 h): 50.6±3.8%
NFκB assay % survival [2]: 72.4±6.2%
Nitrite assay % inhibition [3]: 45.6±2.5%
Nitrite assay % survival [4]: 78.1±3.8%

c1ccc(-c2cc3ccccc3[nH]2)cc1 [Compound 10aa, 2-phenyl-1H-indole]
NFκB assay % survival [2]: 79.8±5.9%
Nitrite assay % survival [4]: 66.7±4.0%

c1ccc(C2Cc3ccccc3N2)cc1 (stereo not drawn) [Compound 3, 2-phenylindoline]
nitrite inhibitory activity (in words) [3]: essentially inactive

Nc1ccccc1C#Cc1cc(F)cc(F)c1 [10ae′, 2-((3,5-Difluorophenyl)ethynyl)aniline]
IC50 at 20 h [5]: 42.9 ± 5.1 µM

Cc1ccccc1-c1cc2ccccc2[nH]1 [Compound 10ab, 2-o-Tolyl-1H-indole]
NFκB inhibitory activity (in words) [1]: inactive
IC80 ([3]; Mus musculus, RAW264.7, read-out: IC80 concentration (nitrite inhibition)): 9.3 µM
IC50 at 20 h [5]: 32.9 ± 2.5 µM
cell survival at the IC80 concentration ([4]; at 9.3 μM (IC80 of nitrite inhibition)): 94.5%

Cc1ccccc1-c1cc2cc([N+](=O)[O-])ccc2[nH]1 [Compound 10bb, 5-Nitro-2-o-toyl-1H-indole]
NFκB assay % inhibition ([1]; 6 h): 60.6±3.2%
NFκB assay % survival [2]: 119.2±8.6%
Nitrite assay % inhibition [3]: 45.9±3.0%
Nitrite assay % survival [4]: 89.2±9.5%

c1ccc(-c2nc3ccccc3[nH]2)cc1 [Compound 11, 2-phenylbenzimidazole, reference compound]
inhibition at 50 µM ([1]; Homo sapiens, 6 h, read-out: NFκB assay % inhibition): 73.6 ± 3.1%
IC50 ([1]; Homo sapiens, 6 h, read-out: NFκB assay IC50): 11.2 ± 0.3 µM
viability at 50 µM ([2]; Homo sapiens, HEK293, read-out: NFκB assay % survival): 86.2 ± 18%
inhibition at 50 µM ([3]; Mus musculus, RAW264.7, 20 h, read-out: Nitrite assay % inhibition): 13.8 ± 6.4%
viability at 50 µM ([4]; Mus musculus, RAW264.7, 20 h, read-out: Nitrite assay % survival): 97.7 ± 5.6%

Cc1ccc(-c2cc3ccccc3[nH]2)cc1 [Compound 10ac, 2-p-Tolyl-1H-indole]
nitrite inhibitory activity (in words) [3]: essentially inactive

C#CCn1c(-c2ccccc2)cc2ccccc21 [Compound 2d, 2-Phenyl-N-propargylindole]
IC50 at 20 h [5]: 46.8 ± 1.9 µM

COc1cc(OC)cc(-c2cc3ccccc3[nH]2)c1 [Compound 10ag, 2-(3,5-Dimethoxyphenyl)-1H-indole]
NFκB inhibitory activity (in words) [1]: inactive

c1ccc(-c2cc3ccccc3[nH]2)cc1 [Compound 1, 2-phenylindole]
NFκB assay % inhibition ([1]; 6 h, 50 µM): 72.3±5%
NFκB assay % survival [2]: 113.1±2.8%
Nitrite assay % inhibition ([3]; 50 µM): 60.4±2.2%
Nitrite assay % survival [4]: 87.3±3.9%

CC(C)(C)OC(=O)n1c(-c2ccccc2)cc2ccccc21 [Compound 2f, N-Boc-2-phenylindole]
IC50 at 20 h [5]: 38.2 ± 5 µM

CON=Cc1c(-c2ccccc2)[nH]c2ccccc12 [Compound 6a, 2-Phenyl-1H-indole-3-carboxaldehyde O-methyl oxime]
IC50 at 20 h [5]: 48 ± 5.1 µM
